Consider 32 molecules from patent publication US3954814A, “Alkadienylcyclopropanecarboxylates” (Sumitomo Chemical Company, Limited, priority 1971, dated 1976).

One assay deals with house flies. Kind of assay: Campbell's turn table oil spray test on house fly adults (Experimental Example 1). The format is in vivo. The following applies: Musca domestica, 24 h, oil spray 5 ml, 10 min exposure, mortality after 1 day, read-out: LC50 (50 percent lethal concentration). On the procedure:
The present compounds (1), (4), (8), (10), (14), (15), (20), (22), (32), (36), (38), (41), (44), (48), (50), (51), (52), (53), (61), (66), (68), (72), (73), (78), (80), (81), (90), (93) and (96), and chrysanthemic acid esters and pyrethric acid esters corresponding thereto were individually formulated by use of deodorized kerosene into oil sprays of various test concentrations.
Using the Campbell's turn table [disclosed in "Soap & Sanitary Chemicals," Vol. 14, No. 6, page 119 (1938)], 5 ml. of each of the oil sprays was sprayed. When 20 seconds had elapsed after the spraying, the shutter was opened, and adults of house flies (a group of about 100 flies) were exposed to the settling mist for 10 minutes and then transferred to an observation cage.
The above operation was repeated several times to measure the LC50 (50 percent lethal concentration) of each compound.

In assay [1] the test system is Northern house mosquitoes. Kind of assay: knock-down test of oil sprays on Northern house mosquito adults in (70 cm)^3 glass chamber (Experimental Example 2). The format is in vivo. As for the experimental part: The present compounds (1), (6), (20), (22), (23), (25), (27), (29), (30), (31), (39), (42), (43), (45), (49), (53), (56), (62), (64), (78), (81), (83), (85), (87), (88) and (89), and chrysanthemic acid esters and pyrethric acid esters corresponding thereto were individually formulated by use of deodorized kerosene into oil sprays of various test concentrations.
About 20 adults of Northern house mosquitoes were liberated in a (70 cm)^3 glass chamber, and 0.7 ml. of each of the oil sprays was sprayed into the chamber under a pressure of 1.5 kg/cm^2 by use of a glass atomizer. Subsequently, the number of knocked-down mosquitoes was counted to calculate the KT50 (50 percent knock down time) of each compound.

Setting [2] is: concentration of oil spray 0.2%.
[3] abbreviates: concentration of oil spray 0.1%.

≈ marks a conversion by molar mass, not a printed value.

For `C=CCc1cc(C)c(COC(=O)C2C(C=C(C)C(=O)OC)C2(C)C)c(C)c1` (stereo not drawn) [2,6-Dimethyl-4-allylbenzyl pyrethrate, reference compound], in the assay on house flies, the LC50 stood at 1420 µg/mL (≈ 3830 µM).
In the case of `C=CCC1=C(C)C(OC(=O)C2C(C=C(C)C(=O)OC)C2(C)C)CC1=O` (stereo not drawn) [2-Allyl-3-methyl-2-cyclopentene-1-one-4-yl pyrethrate, reference compound], in assay [1] (setting [2]), the “KT50 (50 percent knock down time)” value was 173 s.
`C#CCC1=C(C)C(OC(=O)C2C(C=C(C)C)C2(C)C)CC1=O` (stereo not drawn) [2-Propargyl-3-methyl-2-cyclopentene-1-one-4-yl chrysanthemate, reference compound]: in assay [1] (setting [3]), the “KT50 (50 percent knock down time)” value was 249 s.
`CC(C)=CC1C(C(=O)OCN2C(=O)C3=C(CCCC3)C2=O)C1(C)C` (stereo not drawn) [3,4,5,6-Tetrahydrophthalimidomethyl chrysanthemate, reference compound]: the “KT50 (50 percent knock down time)” value in assay [1] (setting [3]) was determined as 103 s.
On to `CC(C)=CC1C(C(=O)OCN2C(=O)C3=C(CC=CC3)C2=O)C1(C)C` (stereo not drawn) [3,6-Dihydrophthalimidomethyl chrysanthemate, reference compound], for which the “KT50 (50 percent knock down time)” value in assay [1] (setting [3]) was 107 s.
For the molecule `COC(=O)C(C)=CC1C(C(=O)OCc2cccc(Oc3ccccc3)c2)C1(C)C` (stereo not drawn) [3-Phenoxybenzyl pyrethrate, reference compound], in the assay with house flies, the LC50 came out at 1250 µg/mL (≈ 3170 µM).
Turning to `COC(=O)C(C)=CC1C(C(=O)OCc2coc(Cc3ccccc3)c2)C1(C)C` (stereo not drawn) [5-Benzyl-3-furylmethyl pyrethrate, reference compound], the LC50 with house flies amounted to 890 µg/mL (≈ 2330 µM). Also, in assay [1] (setting [2]), the “KT50 (50 percent knock down time)” value is 182 s.
In the case of `C#CCc1ccc(C(C#C)OC(=O)C2C(C=C(C)C(=O)OC)C2(C)C)o1` (stereo not drawn) [5-Propargyl-α-ethynylfurfuryl pyrethrate, reference compound], the LC50 in the assay on house flies amounted to 820 µg/mL (≈ 2310 µM).
Regarding `C#CCc1ccc(COC(=O)C2C(C=C(C)C)C2(C)C)o1` (stereo not drawn) [5-Propargylfurfuryl chrysanthemate, reference compound], in assay [1] (setting [2]), the “KT50 (50 percent knock down time)” value is 132 s.
On to `CC(C)=CC1C(C(=O)OCN2C(=O)C(C)=C(C)C2=O)C1(C)C` (stereo not drawn) [Dimethylmaleimidomethyl chrysanthemate, reference compound], for which the “KT50 (50 percent knock down time)” value in assay [1] (setting [3]) was determined as 101 s.
`CC(C)=CC1C(C(=O)OCN2C(=O)c3ccccc3C2=S)C1(C)C` (stereo not drawn) [Monothiophthalimidomethyl chrysanthemate, reference compound]: the “KT50 (50 percent knock down time)” value in assay [1] (setting [2]) worked out at 207 s.
On to `C#CCc1ccc(COC(=O)C2C(C=C(C)C=C)C2(C)C)o1` (stereo not drawn) [Present compound (6), 5-Propargylfurfuryl 2',2'-dimethyl-3'-(2"-methyl-1",3"-butadienyl)-cyclopropanecarboxylate], for which the “KT50 (50 percent knock down time)” value in assay [1] (setting [2]) was found to be 105 s.
Regarding `C=CCC1=C(C)C(OC(=O)C2C(C=C(C)C=C)C2(C)C)CC1=O` (stereo not drawn) [Present compound (23), 2-Allyl-3-methyl-2-cyclopentene-1-one-4-yl 2',2'-dimethyl-3'-(2"-methyl-1",3"-butadienyl)-cyclopropanecarboxylate], the “KT50 (50 percent knock down time)” value in assay [1] (setting [2]) is 152 s.
As to `C#CCC1=C(C)C(OC(=O)C2C(C=C(C)C=C)C2(C)C)CC1=O` (stereo not drawn) [Present compound (25), 2-propargyl-3-methyl-2-cyclopentene-1-one-4-yl 2',2'-dimethyl-3'-(2"-methyl-1",3"-butadienyl)-cyclopropanecarboxylate], in assay [1] (setting [3]), the “KT50 (50 percent knock down time)” value was 190 s.
Still for that read-out and setting: next, `C=CC(C)=CC1C(C(=O)OCN2C(=O)C3=C(CCCC3)C2=O)C1(C)C` (stereo not drawn) [Present compound (27), 3,4,5,6-Tetrahydrophthalimidomethyl 2',2'-dimethyl-3'-(2"-methyl-1",3"-butadienyl)-cyclopropanecarboxylate]: 83 s.
With `C=CC(C)=CC1C(C(=O)OCN2C(=O)c3ccccc3C2=S)C1(C)C` (stereo not drawn) [Present compound (29), Monothiophthalimidomethyl 2,2-dimethyl-3-(2'-methyl-1',3'-butadienyl)-cyclopropanecarboxylate], the “KT50 (50 percent knock down time)” value in assay [1] (setting [2]) came out at 182 s.
In the case of `C=CC(C)=CC1C(C(=O)OCN2C(=O)C3=C(CC=CC3)C2=O)C1(C)C` (stereo not drawn) [Present compound (30), 3,6-Dihydrophthalimidomethyl 2',2'-dimethyl-3'-(2"-methyl-1",3"-butadienyl)-cyclopropanecarboxylate], the “KT50 (50 percent knock down time)” value in assay [1] (setting [3]) came to 89 s.
On to `C=CC(C)=CC1C(C(=O)OCN2C(=O)C(C)=C(C)C2=O)C1(C)C` (stereo not drawn) [Present compound (31), Dimethylmaleimidomethyl 2,2-dimethyl-3-(2'-methyl-1',3'-butadienyl)-cyclopropanecarboxylate], for which, in assay [1] (setting [3]), the “KT50 (50 percent knock down time)” value worked out at 80 s.
Turning to `C#CCc1ccc(COC(=O)C2C(C=C(C)C=CC)C2(C)C)o1` (stereo not drawn) [Present compound (39), 5-Propargylfurfuryl 2',2'-dimethyl-3'-(2"-methyl-1",3"-pentadienyl)-cyclopropanecarboxylate], in assay [1] (setting [2]), the “KT50 (50 percent knock down time)” value amounted to 114 s.
With `C=CCC1=C(C)C(OC(=O)C2C(C=C(C)C=CC)C2(C)C)CC1=O` (stereo not drawn) [Present compound (42), 2-Allyl-3-methyl-2-cyclopentene-1-one-4-yl 2',2'-dimethyl-3'-(2"-methyl-1",3"-pentadienyl)-cyclopropanecarboxylate], the “KT50 (50 percent knock down time)” value in assay [1] (setting [2]) came out at 165 s.
Turning to `CC=CC(C)=CC1C(C(=O)OCN2C(=O)C3=C(CCCC3)C2=O)C1(C)C` (stereo not drawn) [Present compound (43), 3,4,5,6-Tetrahydrophthalimidomethyl 2',2'-dimethyl-3'-(2"-methyl-1",3"-pentadienyl)-cyclopropanecarboxylate], in assay [1] (setting [3]), the “KT50 (50 percent knock down time)” value is 197 s.
As to `C#CCc1ccc(COC(=O)C2C(C=C(C)C=C(C)C)C2(C)C)o1` (stereo not drawn) [Present compound (45), 5-Propargylfurfuryl 2',2'-dimethyl-3'-(2",4"-dimethyl-1",3"-pentadienyl)-cyclopropanecarboxylate], in assay [1] (setting [2]), the “KT50 (50 percent knock down time)” value worked out at 117 s.
As to `CC(C)=CC(C)=CC1C(C(=O)OCN2C(=O)C3=C(CCCC3)C2=O)C1(C)C` (stereo not drawn) [Present compound (49), 3,4,5,6-Tetrahydrophthalimidomethyl 2',2'-dimethyl-3'-(2",4"-dimethyl-1",3"-pentadienyl)-cyclopropanecarboxylate], the “KT50 (50 percent knock down time)” value in assay [1] (setting [3]) was found to be 86 s.
`CC=C(C)C=CC1C(C(=O)OCc2coc(Cc3ccccc3)c2)C1(C)C` (stereo not drawn) [Present compound (56), 5-Benzyl-3-furylmethyl 2',2'-dimethyl-3'-(3"-methyl-1",3"-pentadienyl)-cyclopropanecarboxylate]: the “KT50 (50 percent knock down time)” value in assay [1] (setting [2]) came to 150 s.
On to `C=CC=CC1C(C(=O)OC(C#N)c2cccc(Cc3ccccc3)c2)C1(C)C` (stereo not drawn) [Present compound (62), 3-Benzyl-α-cyanobenzyl 2',2'-dimethyl-3'-(1",3"-butadienyl)-cyclopropanecarboxylate], for which the “KT50 (50 percent knock down time)” value in assay [1] (setting [3]) is 144 s.
Consider `C#CCc1ccc(COC(=O)C2C(C=CC=C)C2(C)C)o1` (stereo not drawn) [Present compound (64), 5-Propargylfurfuryl 2',2'-dimethyl-3' -(1",3"-butadienyl)-cyclopropanecarboxylate], for which the “KT50 (50 percent knock down time)” value in assay [1] (setting [2]) came out at 98 s.
For the molecule `C#CCC1=C(C)C(OC(=O)C2C(C=CC=C)C2(C)C)CC1=O` (stereo not drawn) [Present compound (83), 2-Propargyl-3-methyl-2-cyclopentene-1-one-4-yl 2',2'-dimethyl-3'-(1",3"-butadienyl)-cyclopropanecarboxylate], the “KT50 (50 percent knock down time)” value in assay [1] (setting [3]) is 183 s.
For `C=CC=CC1C(C(=O)OCN2C(=O)C3=C(CCCC3)C2=O)C1(C)C` (stereo not drawn) [Present compound (85), 3,4,5,6-Tetrahydrophthalimidomethyl 2',2'-dimethyl-3'-(1",3"-butadienyl)-cyclopropanecarboxylate], the “KT50 (50 percent knock down time)” value in assay [1] (setting [3]) turned out to be 74 s.
Turning to `C=CC=CC1C(C(=O)OCN2C(=O)c3ccccc3C2=S)C1(C)C` (stereo not drawn) [Present compound (87), Monothiophthalimidomethyl 2',2'-dimethyl-3'-(1",3"-butadienyl)-cyclopropanecarboxylate], in assay [1] (setting [2]), the “KT50 (50 percent knock down time)” value is 177 s.
Turning to `C=CC=CC1C(C(=O)OCN2C(=O)C3=C(CC=CC3)C2=O)C1(C)C` (stereo not drawn) [Present compound (88), 3,6-Dihydrophthalimidomethyl 2',2'-dimethyl-3'-(1",3"-butadienyl)-cyclopropanecarboxylate], the “KT50 (50 percent knock down time)” value in assay [1] (setting [3]) turned out to be 79 s.
For `C=CC=CC1C(C(=O)OCN2C(=O)C(C)=C(C)C2=O)C1(C)C` (stereo not drawn) [Present compound (89), Dimethylmaleimidomethyl 2,2-dimethyl-3-(1',3'-butadienyl)-cyclopropanecarboxylate], the “KT50 (50 percent knock down time)” value in assay [1] (setting [3]) amounted to 72 s.
With `C=CC=CC1C(C(=O)OC(C#N)c2cccc(Oc3cccc(C)c3)c2)C1(C)C` (stereo not drawn) [Present compound (96), 3-(m-Tolyloxy)-α-cyanobenzyl 2',2'-dimethyl-3'-(1",3"-butadienyl)-cyclopropanecarboxylate], in the assay with house flies, the LC50 was 60 µg/mL (≈ 155 µM).
